Values of other authors in patent US5654452A, “Lipophilic contrast agents for use in hepatocyte-selective oil-in-water emulsions” (Molecular Biosystems, Inc., priority 1995, dated 1997).

System: reticulendothelial system (RES)
Settings: in vivo

CCOC(=O)c1c(I)cc(I)c(NC(=O)CCCCC(=O)Nc2c(I)cc(I)c(C(=O)OCC)c2I)c1I [iodipamide ethyl esters]
uptake / liver specificity in reticuloendothelial system: liver specificity is mediated primarily via sequestration by the reticulendothelial system (RES)
